Reference: patent US10501479B2, “Benzenesulfonyl-asymmetric ureas and medical uses thereof” (HELSINN HEALTHCARE SA, priority 2016, dated 2019)
Read-outs that look alike come from different tables or passages of the source.

Assays:
[1] = Metabolic stability in mouse liver microsomes; type: in vitro ADME
Procedure, shortened: (§1)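 Parent compound was measured by LC-MS/MS at time zero and after 10, 30 and 90 min at 37 °C. Incubations used liver microsomes from four species (human, dog, rat, mouse) with an NADPH regenerating system in pH 7.4 potassium phosphate buffer. Each timepoint was stopped with cold quench solution.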

[2] = Metabolic stability in human liver microsomes; type: in vitro ADME
Procedure, shortened: as §1

[3] = Animal PK study in mouse via i.v., p.o. and s.c. administration; type: in vivo; conditions: for PK CLiv / PK Vdiv / PK t1/2iv: i.v.; for PK CLpo / PK Vdpo / PK t1/2po: p.o.
Description: All treated animals received a single dose of a test compound (either through i.v., p.o., or s.c. administration) according to the regimen shown in the following table:
For oral dose groups, appropriate amount of test compound was prepared in the following formulation carrier: 1% DMSO (increase to 5% maximum if necessary) and 0.5% Methycellulose. Each mouse or rat received by oral gavage 10 mL/kg of the formulation mixture.
For i.v. and s.c dose groups, appropriate amount of test compound was dissolved in 1% DMSO (increase to 5% maximum if necessary), 99% of 20% HP-β-Cyclodextron (w/v). The pH was adjusted accordingly. Each mouse or rat received 5 mL/kg of the formulation mixture. i.v. dose was administered by tail vein injection. Subcutaneous injection was administered over the shoulders, into the loose skin over the neck. At designated time points (e.g., i.v. and s.c.: 0.083, 0.25, 0.5, 1, 2, 4, 8 and 24 hrs; p.o.: 0.25, 0.5, 1, 2, 4, 8 and 24 hrs), systemic samples of blood (50 μL in mouse or 500 μL in rat) were collected by puncture (submandibular vein in mouse or jugular vein in rat) into vacutainers containing EDTA-K2 as anti-coagulant. The blood was centrifuged at 6000 rpm for 8 min at 4° C. to obtain plasma. All plasma samples were stored at −20° C. All plasma samples were added to acetonitrile for protein precipitation and quantitatively analyzed by LC-MS/MS.

[4] = biological target: T1, recombinant human ghrelin receptor (HEK293/GRLN) (Homo sapiens, UniProt Q92847); assay: Ghrelin inverse agonist potency (EC50) with IP-1 (IP-One HTRF) assay; type: cell-based; conditions: IP-1 assay
T1 construct: expressed in transfected cells
Procedure, shortened: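 IP-1 accumulation was measured by HTRF (IP1-d2/Tb-cryptate, 620/665 nm read after 1 hour at room temperature) following 1 hour of compound treatment at 37° C. Cells were HEK293 stably expressing human ghrelin receptor, plated a day earlier on Matrigel. Inverse agonist potency was reported as EC50.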

[5] = biological target: T2, GHSR-1a (HEK293/GHSR1a cell line) (Homo sapiens, UniProt Q92847); assay: Ghrelin antagonist potency (IC50) with calcium FLIPR assay, ghrelin 10 nM; type: cell-based; conditions: ghrelin antagonist potency
T2 construct: expressed in transfected cells; host or cells: HEK293/GHSR1a cell line
Procedure, shortened: (§2)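 Calcium flux was followed 2 min by FLIPR in dye-loaded HEK293/GHSR1a cells. For antagonist IC50, compound and ghrelin (10 nM) were co-added at t=20 sec and inhibition of the ghrelin signal fitted; for agonist EC50, compound alone was added at t=20 sec and dose-response fitted.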

[6] = biological target: T2, GHSR-1a (HEK293/GHSR1a cell line); assay: Ghrelin agonist potency (EC50) with calcium FLIPR assay; type: cell-based; conditions: ghrelin agonist potency, read-out: Activity EC50/EMax
Procedure, shortened: as §2

[7] = ghrelin inverse agonist potency, read-out: Activity EC50

T1 sequence (Q92847 whole entry): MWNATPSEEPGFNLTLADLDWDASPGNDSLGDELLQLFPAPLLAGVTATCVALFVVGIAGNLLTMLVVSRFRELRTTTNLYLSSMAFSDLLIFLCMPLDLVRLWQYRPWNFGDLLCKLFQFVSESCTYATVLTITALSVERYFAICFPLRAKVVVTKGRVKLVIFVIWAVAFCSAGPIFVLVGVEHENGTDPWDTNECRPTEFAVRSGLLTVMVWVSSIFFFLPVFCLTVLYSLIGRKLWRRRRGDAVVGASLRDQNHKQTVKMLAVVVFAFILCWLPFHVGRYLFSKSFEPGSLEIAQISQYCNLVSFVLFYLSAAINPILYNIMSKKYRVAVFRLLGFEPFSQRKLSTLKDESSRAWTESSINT
T2 sequence (Q92847 whole entry): as above

Row | SMILES | Metabolic Stability Study M = mouse [1] | Metabolic Stability Study H = human [2] | PK F [3] | PK CLiv [3] | PK Vdiv [3] | PK t1/2iv [3] | PK CLpo [3] | PK Vdpo [3] | PK t1/2po [3] | EC50 ([4]; inverse agonist potency, read-out: EC50 (Activity)) | IC50 ([5]; read-out: IC50 (Activity)) | EC50 [6] | EC50 [4, 7] | IC50 ([5]; read-out: Activity IC50)
1 | C[C@H](NC(=O)Nc1ccc(S(=O)(=O)Cc2ccc(CC(C)(C)N(C)C)cc2)cc1)c1cccc(Cl)c1Cl [H1010, (S)-1-(1-(2,3-dichlorophenyl)ethyl)-3-(4-((4-(2-(dimethylamino)-2-methylpropyl)benzyl)sulfonyl)phenyl)urea] | H = 40.5 M = 40.5 R = not reported D = not reported μL/min/mg | H = 40.5 M = 40.5 R = not reported D = not reported μL/min/mg | 3.09% | 55.7 mL/min/kg | 1.39 L/kg | 1.39 h | 1803 mL/min/kg | 169 L/kg | 1.08 h | 15 nM | 42 nM | – | – | –
2 | COc1ccc([C@H](C)NC(=O)Nc2ccc(S(=O)(=O)Cc3ccc4c(c3)CCN(C(C)=O)C4)cc2)c(Cl)c1Cl [H1025, (S)-1-(4-(((2-acetyl-1,2,3,4-tetrahydroisoquinolin-6-yl)methyl)sulfonyl)phenyl)-3-(1-(2,3-dichloro-4-methoxyphenyl)ethyl)urea] | 159.5 µL/min/mg | 92.4 µL/min/mg | 5.92% | 30.7 mL/min/kg | 2.86 L/kg | 1.08 h | 514.8 mL/min/kg | 94.83 L/kg | 1.45 h | – | 21400 nM | – | – | –
3 | COC(=O)c1cc(NC(=O)NC(C)c2ccccc2)ccc1S(=O)(=O)Cc1ccc2c(c1)CNC2 (centres unmarked) [H1505, methyl 2-((isoindolin-5-ylmethyl)sulfonyl)-5-(3-(1-phenylethyl)ureido)benzoate] | 135.5 µL/min/mg | 37.3 µL/min/mg | – | – | – | – | – | – | – | – | – | > 30000 nM | 11.7 nM | 8.28 nM
4 | CC(NC(=O)Nc1ccc(S(=O)(=O)Cc2ccc3c(c2)CNC3)c(C2CC2)c1)c1ccccc1 (centres unmarked) [H1506, 1-(3-cyclopropyl-4-((isoindolin-5-ylmethyl)sulfonyl)phenyl)-3-(1-phenylethyl)urea] | 132.5 µL/min/mg | 49.2 µL/min/mg | – | – | – | – | – | – | – | – | – | > 30000 nM | 4.2 nM | 2.28 nM
5 | CC(c1cccc(Cl)c1Cl)N(O)C(=O)Nc1ccc(S(=O)(=O)Cc2ccc3c(c2)CNC3)cc1.O=C(O)C(F)(F)F (centres unmarked) [H1509, 1-(1-(2,3-dichlorophenyl)ethyl)-1-hydroxy-3-(4-((isoindolin-5-ylmethyl)sulfonyl)phenyl)urea] | 16.0 µL/min/mg | 15.9 µL/min/mg | – | – | – | – | – | – | – | – | – | > 30000 nM | 1 nM | 0.336 nM
6 | COc1cc(NC(=O)N(O)C(C)c2ccccc2F)ccc1S(=O)(=O)Cc1ccc2c(c1)CNC2 (centres unmarked) [H1510, 1-(1-(2-fluorophenyl)ethyl)-1-hydroxy-3-(4-((isoindolin-5-ylmethyl)sulfonyl)-3-methoxyphenyl)urea] | 18.4 µL/min/mg | 23.8 µL/min/mg | – | – | – | – | – | – | – | – | – | > 30000 nM | 3.5 nM | 5.36 nM
7 | COc1cc(NC(=O)N(O)C(C)c2ccccc2F)ccc1S(=O)(=O)Cc1ccc2c(c1)CN(C)C2 (centres unmarked) [H1511, 1-(1-(2-fluorophenyl)ethyl)-1-hydroxy-3-(3-methoxy-4-(((2-methylisoindolin-5-yl)methyl)sulfonyl)phenyl)urea] | 44.5 µL/min/mg | 94.2 µL/min/mg | – | – | – | – | – | – | – | – | – | > 30000 nM | 5.2 nM | 6.04 nM
8 | COc1cc(NC(=O)N(O)C(C)c2ccccc2)ccc1S(=O)(=O)Cc1ccc2c(c1)CNC2 (centres unmarked) [H1515, 1-hydroxy-3-(4-((isoindolin-5-ylmethyl)sulfonyl)-3-methoxyphenyl)-1-(1-phenylethyl)urea] | 18.4 µL/min/mg | 15.2 µL/min/mg | – | – | – | – | – | – | – | – | – | > 30000 nM | 9.6 nM | 15.7 nM
9 | COc1cc(NC(=O)N(O)C(C)c2ccccc2)ccc1S(=O)(=O)Cc1ccc2c(c1)CN(C)C2 (centres unmarked) [H1516, 1-hydroxy-3-(3-methoxy-4-(((2-methylisoindolin-5-yl)methyl)sulfonyl)phenyl)-1-(1-phenylethyl)urea] | 35.1 µL/min/mg | 65.2 µL/min/mg | – | – | – | – | – | – | – | – | – | > 30000 nM | 11.3 nM | 33.5 nM
10 | COc1cc(S(=O)(=O)Cc2ccc3c(c2)CNC3)ccc1NC(=O)N(O)C(C)c1ccccc1 (centres unmarked) [H1517, 1-hydroxy-3-(4-((isoindolin-5-ylmethyl)sulfonyl)-2-methoxyphenyl)-1-(1-phenylethyl)urea] | 56.6 µL/min/mg | 25.6 µL/min/mg | – | – | – | – | – | – | – | – | – | > 30000 nM | 6.7 nM | 10.5 nM
11 | COc1cc(S(=O)(=O)Cc2ccc3c(c2)CN(C)C3)ccc1NC(=O)N(O)C(C)c1ccccc1 (centres unmarked) [H1518, 1-hydroxy-3-(2-methoxy-4-(((2-methylisoindolin-5-yl)methyl)sulfonyl)phenyl)-1-(1-phenylethyl)urea] | 154.7 µL/min/mg | 151.1 µL/min/mg | – | – | – | – | – | – | – | – | – | > 30000 nM | 7.8 nM | 27.4 nM
12 | CC(NC(=O)Nc1ccc(S(=O)(=O)Cc2ccc3c(c2)CNC3)cc1-c1cc[nH]n1)c1ccccc1 (centres unmarked) [H1519, 1-(4-((isoindolin-5-ylmethyl)sulfonyl)-2-(1H-pyrazol-3-yl)phenyl)-3-(1-phenylethyl)urea] | 169.8 µL/min/mg | 47.3 µL/min/mg | – | – | – | – | – | – | – | – | – | > 30000 nM | 4.6 nM | 12.1 nM
13 | COc1cc(S(=O)(=O)Cc2ccc3c(c2)CCN(C)C3)ccc1NC(=O)N(O)C(C)c1cccc(Cl)c1Cl.O=C(O)C(F)(F)F (centres unmarked) [H1523, 1-(1-(2,3-dichlorophenyl)ethyl)-1-hydroxy-3-(2-methoxy-4-(((2-methyl-1,2,3,4-tetrahydroisoquinolin-6-yl)methyl)sulfonyl)phenyl)urea] | 155.5 µL/min/mg | 100.9 µL/min/mg | – | – | – | – | – | – | – | – | – | > 30000 nM | 2.1 nM | 4.92 nM
14 | C[C@@H](NC(=O)Nc1ccc(S(=O)(=O)Cc2ccc3c(c2)C(F)CNC3)cc1)c1cccc(Cl)c1Cl (stereo partly drawn) [H1537, 1-((R)-1-(2,3-dichlorophenyl)ethyl)-3-(4-(((4-fluoro-1,2,3,4-tetrahydroisoquinolin-6-yl)methyl)sulfonyl)phenyl)urea] | 135.3 µL/min/mg | 43.2 µL/min/mg | – | – | – | – | – | – | – | – | – | > 30000 nM | 18.4 nM | 69 nM
15 | C[C@@H](NC(=O)Nc1ccc(S(=O)(=O)Cc2ccc3c(c2)C(F)CN(C)C3)cc1)c1cccc(Cl)c1Cl (stereo partly drawn) [H1538, 1-((R)-1-(2,3-dichlorophenyl)ethyl)-3-(4-(((4-fluoro-2-methyl-1,2,3,4-tetrahydroisoquinolin-6-yl)methyl)sulfonyl)phenyl)urea] | 354 µL/min/mg | 237.3 µL/min/mg | – | – | – | – | – | – | – | – | – | > 30000 nM | 8.6 nM | 172 nM
